Measurements taken from the NIST ThermoML archive (doi:10.1021/je3005408).
Numbers after ± are expanded uncertainties.

Conditions: Liquid, Ebulliometric method (Recirculating still)

| Structure (SMILES) | vapor or sublimation pressure (317.95 K) [kPa] | vapor or sublimation pressure (336.85 K) [kPa] | vapor or sublimation pressure (349.15 K) [kPa] | vapor or sublimation pressure (361.65 K) [kPa] | vapor or sublimation pressure (381.35 K) [kPa] | vapor or sublimation pressure (394.25 K) [kPa] |
| --- | --- | --- | --- | --- | --- | --- |
| C1CCCCC1 [cyclohexane] | 29.77 ± 0.34 | 58.85 ± 0.77 | 87.65 ± 1.2 | – | – | – |
| CCCCOC(C)=O [butyl ethanoate] | – | – | – | 29.77 ± 0.34 | 58.85 ± 0.79 | 87.65 ± 1.3 |
